These results are taken from EP3436445B1, “HISTONE DEMETHYLASE INHIBITORS” (Celgene Quanticel Research, Inc., priority 2016, dated 2017).

What is called IC50 is the point on the concentration scale where inhibition reaches its midpoint. Lower therefore signals greater potency in that assay.

Test [1] has as its target T1, JMJD3 (Homo sapiens, UniProt O15054).
T1 construct: purchased BPS Bioscience 50115
Kind of test: JMJD3 in vitro enzyme inhibition assay (AlphaScreen). The test is classed as biochemical. Conditions: Table 5; 1 nM JMJD3, H3K27me3-biotin labeled peptide. The text has this: (§1) This assay determines the ability of a test compound to inhibit Jarid1B, JMJD2C and JMJD3 demethylase activity. Baculovirus expressed Jarid1B (GenBank Accession #NM-006618, AA 2-751) was purchased from BPS Bioscience (Cat #50121) or custom made by MolecularThroughput. Baculovirus expressed JMJD2C (GenBank Accession #BC143571, AA 2-372) was purchased from BPS Bioscience (Cat#50105). Baculovirus expressed JMJD3 (GenBank Accession #NM-001080424, AA1043-end) was purchased from BPS Bioscience (Cat#50115).
The ability of test compounds to inhibit the activity of JMJD3 was determined in 384-well plate format under the following reaction conditions: 1 nM JMJD3, 250 nM H3K27me3-biotin labeled peptide (Anaspec cat # 64367), 1 µM alpha-ketoglutaric acid in assay buffer of 50 mM HEPES, pH7.3, 0.005% Brij35, 0.5 mM TCEP, 0.2 mg/ml BSA, 50 µM sodium L-ascorbate, 5 µM ammonium iron(II) sulfate. Reaction product is determined quantitatively by AlphaScreen detection after the addition of detection reagents anti-H3K27me1 antibody, 5 µg/ml AlphaScreen® Streptavidin-coated Donor beads, and 5 µg/ml AlphaScreen® Protein A Acceptor beads in 50 mM HEPES, pH7.3, 10 mM NaCl, 0.005% Brij35, 10 mM EDTA, 2 mg/ml BSA.
The assay reaction was initiated by the following: 3 µl of the mixture of 750 nM H3K27me3-biotin labeled peptide and 3 µM alpha-ketoglutaric acid with 3 µl of 11-point serial diluted inhibitor in 3% DMSO are added to each well of 384 well Proxiplate (Perkin Elmer), followed by the addition of 3 µl of 3 nM JMJD3 to initiate the reaction. The reaction mixture is incubated at room temperature for 20 minutes, and terminated by the addition of 3 µl of appropriate dilution of anti H3K27me1 antibody in 50 mM HEPES, pH7.3, 10 mM NaCl, 0.005% Brij35, 10 mM EDTA, 2 mg/ml BSA. Plates will then incubated at room temperature for 1 hour, followed by addition of 3 µl of 25 µg/ml AlphaScreen® Streptavidin-coated Donor beads and AlphaScreen® Protein A Acceptor beads in 50 mM HEPES, pH7.3, 10 mM NaCl, 0.005% Brij35, 10 mM EDTA, 2 mg/ml BSA. Plates will then be read by EnVision Multilabel Reader in AlphaScreen mode after minimum 2 hour incubation at room temperature. The AlphaScreen signal for each well is used to determine inhibition constant (IC50).
(In general: Bead proximity is the source of the signal in Alpha formats.)

Test [2] has as its target T2, JMJD2C (Homo sapiens, UniProt Q9H3R0).
T2 construct: purchased BPS Bioscience 50105
T2 sequence (Q9H3R0 2-372): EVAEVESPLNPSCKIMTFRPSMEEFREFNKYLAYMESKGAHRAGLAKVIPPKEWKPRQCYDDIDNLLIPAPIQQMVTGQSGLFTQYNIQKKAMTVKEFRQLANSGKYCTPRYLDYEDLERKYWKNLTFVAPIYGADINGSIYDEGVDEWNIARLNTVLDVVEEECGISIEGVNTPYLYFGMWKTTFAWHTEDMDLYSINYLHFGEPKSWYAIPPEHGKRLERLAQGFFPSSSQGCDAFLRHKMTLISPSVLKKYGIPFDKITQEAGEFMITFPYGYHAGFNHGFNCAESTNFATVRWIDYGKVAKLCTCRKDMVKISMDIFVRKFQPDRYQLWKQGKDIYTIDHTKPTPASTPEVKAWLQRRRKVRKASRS
Briefly: JMJD2C in vitro enzyme inhibition assay (TR-FRET). The test is classed as biochemical. Particulars: Table 5; 0.3 nM JMJD2C, H3K9me3-biotin labeled peptide.
Text: as §1
The ability of test compounds to inhibit the activity of JMJD2C was determined in 384-well plate format under the following reaction conditions: 0.3 nM JMJD2C, 300 nM H3K9me3-biotin labeled peptide (Anaspec cat #64360), 2 µM alpha-ketoglutaric acid in assay buffer of 50 mM HEPES, pH7.3, 0.005% Brij35, 0.5 mM TCEP, 0.2 mg/ml BSA, 50 µM sodium L-ascorbate, and 2 µM ammonium iron(II) sulfate. Reaction product was determined quantitatively by TR-FRET after the addition of detection reagent Phycolink Streptavidin-allophycocyanin (Prozyme) and Europium-anti-di-methylated histone H3 lysine 9 (H3K9me2) antibody (PerkinElmer) in the presence of 5 mM EDTA in LANCE detection buffer (PerkinElmer) at a final concentration of 50 nM and 1 nM, respectively.
The assay reaction was initiated by the following: 2 µl of the mixture of 900 nM H3K9me3-biotin labeled peptide and 6 µM alpha-ketoglutaric acid with 2 µl of 11-point serial diluted inhibitor in 3% DMSO were added to each well of the plate, followed by the addition of 2 µl of 0.9 nM JMJD2C to initiate the reaction. The reaction mixture was incubated at room temperature for 30 minutes, and terminated by the addition of 6 µl of 5 mM EDTA in LANCE detection buffer containing 100 nM Phycolink Streptavidin-allophycocyanin and 2 nM Europium-anti-H3K9me2 antibody. Plates were read by EnVisionMultilabel Reader in TR-FRET mode (excitation at 320 nm, emission at 615 nm and 665 nm) after 1 hour incubation at room temperature. A ratio was calculated (665/615) for each well and fitted to determine inhibition constant (IC50).
A general note: Time-resolved FRET reads energy transfer from a long-lived donor to a nearby acceptor.

T1 sequence (O15054 1043-1682 isoform O15054-1): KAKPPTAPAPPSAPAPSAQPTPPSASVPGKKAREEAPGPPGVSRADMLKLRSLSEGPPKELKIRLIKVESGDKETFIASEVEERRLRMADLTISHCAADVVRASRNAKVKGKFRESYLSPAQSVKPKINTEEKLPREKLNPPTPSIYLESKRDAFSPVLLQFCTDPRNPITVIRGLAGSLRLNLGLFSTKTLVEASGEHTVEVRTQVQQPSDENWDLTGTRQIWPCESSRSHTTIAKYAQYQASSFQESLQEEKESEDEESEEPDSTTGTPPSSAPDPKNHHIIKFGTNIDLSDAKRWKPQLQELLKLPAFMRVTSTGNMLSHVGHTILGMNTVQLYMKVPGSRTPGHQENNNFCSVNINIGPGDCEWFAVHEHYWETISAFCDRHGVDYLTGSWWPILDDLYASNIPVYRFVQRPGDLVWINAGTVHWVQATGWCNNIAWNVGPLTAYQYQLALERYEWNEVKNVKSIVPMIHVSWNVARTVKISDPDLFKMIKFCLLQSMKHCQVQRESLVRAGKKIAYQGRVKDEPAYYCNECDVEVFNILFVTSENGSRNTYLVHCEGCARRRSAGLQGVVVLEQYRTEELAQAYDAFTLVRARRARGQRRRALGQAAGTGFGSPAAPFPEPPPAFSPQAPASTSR

For `Fc1cccc(CCn2cnc(-c3cc(-c4nn[nH]c4C(F)(F)F)ccn3)c2)c1F` [Example 79, 2-{1-[2-(2,3-difluorophenyl)ethyl]-1H-imidazol-4-yl}-4-[5-(trifluoromethyl)-1H-1,2,3-triazol-4-yl]pyridine], the IC50 in test [1] and in test [2] was greater than 10 µM throughout.

Regarding `FC(F)(F)c1[nH]nnc1-c1ccnc(-c2cn(CC3CCOc4ccccc43)cn2)c1` (stereo not shown) [Example 98, 2-{1-[(3,4-dihydro-2H-1-benzopyran-4-yl)methyl]-1H-imidazol-4-yl}-4-[5-(trifluoromethyl)-1H-1,2,3-triazol-4-yl]pyridine], the IC50 in test [1] and in test [2] was greater than 10 µM in each case.

Consider `FC(F)(F)COc1ccccc1Cn1cnc(-c2cc(-c3nn[nH]c3C(F)(F)F)ccn2)c1` [Example 76, 2-(1-{[2-(2,2,2-trifluoroethoxy)phenyl]methyl}-1H-imidazol-4-yl)-4-[5-(trifluoromethyl)-1H-1,2,3-triazol-4-yl]pyridine], for which the IC50 in test [1] and in test [2] was greater than 10 µM each time.

For the compound `Cn1cnc(-c2cc(-c3nn[nH]c3C(F)(F)F)ccn2)c1-c1ccc(F)cc1` [Example 97, 2-[5-(4-fluorophenyl)-1-methyl-1H-imidazol-4-yl]-4-[5-(trifluoromethyl)-1H-1,2,3-triazol-4-yl]pyridine], the concentration for half-maximal inhibition (IC50) in test [1] and in test [2] was greater than 10 µM throughout.

In the case of `COc1ccc2c(c1)C(Cn1cnc(-c3cc(-c4nn[nH]c4C(F)(F)F)ccn3)c1)CCC2` (stereo not shown) [Example 106, 2-{1-[(7-methoxy-1,2,3,4-tetrahydronaphthalen-1-yl)methyl]-1H-imidazol-4-yl}-4-[5-(trifluoromethyl)-1H-1,2,3-triazol-4-yl]pyridine], the IC50 in test [1] and in test [2] was greater than 10 µM each time.

On to `Cc1ccc(Cn2cnc(-c3cc(-c4nn[nH]c4C(F)(F)F)ccn3)c2)cc1` [Example 65, 2-{1-[(4-methylphenyl)methyl]-1H-imidazol-4-yl}-4-[5-(trifluoromethyl)-1H-1,2,3-triazol-4-yl]pyridine], for which the IC50 in test [1] and in test [2] was greater than 10 µM in each case.

Consider `FC(F)(F)c1[nH]nnc1-c1ccnc(-c2cn(Cc3ccccc3)cn2)c1` [Example 72, 2-(1-benzyl-1H-imidazol-4-yl)-4-[5-(trifluoromethyl)-1H-1,2,3-triazol-4-yl]pyridine], for which the IC50 in test [1] and in test [2] was greater than 10 µM in each case.

On to `FC(F)(F)c1[nH]nnc1-c1ccnc(-c2cn(CCc3ccccc3Cl)cn2)c1` [Example 57], for which the IC50 in test [1] and in test [2] was greater than 10 µM in each case.

`CC(c1ccccc1)n1cnc(-c2cc(-c3nn[nH]c3C(F)(F)F)ccn2)c1` (stereo not shown) [Example 73, 2-[1-(1-phenylethyl)-1H-imidazol-4-yl]-4-[5-(trifluoromethyl)-1H-1,2,3-triazol-4-yl]pyridine]: the IC50 in test [1] and in test [2] was greater than 10 µM in each case.

As to `Cc1cc(F)ccc1Cn1cnc(-c2cc(-c3nn[nH]c3C(F)(F)F)ccn2)c1` [Example 70, 2-{1-[(4-fluoro-2-methylphenyl)methyl]-1H-imidazol-4-yl}-4-[5-(trifluoromethyl)-1H-1,2,3-triazol-4-yl]pyridine], the IC50 in test [1] and in test [2] was greater than 10 µM throughout.

As for `CCOc1ccccc1CCn1cnc(-c2cc(-c3nn[nH]c3C(F)(F)F)ccn2)c1` [Example 59], the IC50 in test [1] and in test [2] was greater than 10 µM each time.

Turning to `Fc1ccc(CCn2cnc(-c3cc(-c4nn[nH]c4C(F)(F)F)ccn3)c2)cc1` [Example 77], the IC50 in test [1] was 1 to 10 µM; in test [2] it was greater than 10 µM.

With `Cc1ccc(CCn2cnc(-c3cc(-c4nn[nH]c4C(F)(F)F)ccn3)c2)cc1` [Example 91, 2-{1-[2-(4-methylphenyl)ethyl]-1H-imidazol-4-yl}-4-[5-(trifluoromethyl)-1H-1,2,3-triazol-4-yl]pyridine], the IC50 in test [1] and in test [2] was greater than 10 µM throughout.

On to `Fc1ccccc1Cn1cnc(-c2cc(-c3nn[nH]c3C(F)(F)F)ccn2)c1` [Example 62, 2-{1-[(2-fluoroprtenyl)methyl]-1H-imidazol-4-yl}-4-[5-(trifluoromethyl)-1H-1,2,3-triazol-4-yl]pyridine], for which the IC50 in test [1] and in test [2] was greater than 10 µM throughout.

Turning to `Fc1cccc(CCn2cnc(-c3cc(-c4nn[nH]c4C(F)(F)F)ccn3)c2)c1` [Example 78, 2-{1-[2-(3-fluorophenyl)ethyl]-1H-imidazol-4-yl}-4-[5-(trifluoromethyl)-1H-1,2,3-triazol-4-yl]pyridine], the IC50 in test [1] is 1 to 10 µM; in test [2] it was greater than 10 µM.

In the case of `Fc1ccc(Cn2cnc(-c3cc(-c4nn[nH]c4C(F)(F)F)ccn3)c2)c(F)c1` [Example 68, 2-{1-[(2,4-difluorophenyl)methyl]-1H-imidazol-4-yl}-4-[5-(trifluoromethyl)-1H-1,2,3-triazol-4-yl]pyridine], the IC50 in test [1] and in test [2] was greater than 10 µM in each case.

As for `CC(C)C(c1ccccc1)n1cnc(-c2cc(-c3nn[nH]c3C(F)(F)F)ccn2)c1` (stereo not shown) [Example 75, 2-[1-(2-methyl-1-phenylpropyl)-1H-imidazol-4-yl]-4-[5-(trifluoromethyl)-1H-1,2,3-triazol-4-yl]pyridine], the IC50 in test [1] and in test [2] was greater than 10 µM in each case.

For the compound `O=C(c1ccccc1)N1CCC[C@@H](n2cnc(-c3cc(-c4nn[nH]c4C(F)(F)F)ccn3)c2)C1` [Example 89, 2-{1-[(3R)-1-benzoylpiperidin-3-yl]-1H-imidazol-4-yl}-4-[5-(trifluoromethyl)-1H-1,2,3-triazol-4-yl]pyridine], the IC50 in test [1] and in test [2] was greater than 10 µM each time.

As for `Fc1ccc2c(c1)C(Cn1cnc(-c3cc(-c4nn[nH]c4C(F)(F)F)ccn3)c1)CCC2` (stereo not shown) [Example 101, 2-{1-[(7-fluoro-1,2,3,4-tetrahydronaphthalen-1-yl)methyl]-1H-imidazol-4-yl}-4-[5-(trifluoromethyl)-1H-1,2,3-triazol-4-yl]pyridine], the IC50 in test [1] and in test [2] was greater than 10 µM throughout.

With `Fc1cccc(F)c1CCn1cnc(-c2cc(-c3nn[nH]c3C(F)(F)F)ccn2)c1` [Example 87, 2-{1-[2-(2,6-difluorophenyl)ethyl]-1H-imidazol-4-yl}-4-[5-(trifluoromethyl)-1H-1,2,3-triazol-4-yl]pyridine], the IC50 in test [1] and in test [2] was greater than 10 µM each time.
